This is an account of results in patent US12661356B2, “L718 and/or L792 mutant treatment-resistant EGFR inhibitor” (TAIHO PHARMACEUTICAL CO., LTD., priority 2018, dated 2026).

What all share (experiment): Intracellular EGFR phosphorylation, mutant EGFR forced expression system using HEK293 cells
Assay type in all cases: cell-based
Details in all cases: 6 hours incubation, p-EGFR (Tyr1068)/EGFR

Experiment [1] deals with T1, human EGFR Ex19del+T790M (Homo sapiens, UniProt P00533, DEL746-750/T790M).
T1 construct: expressed in transfected cells; host or cells: Jump-In Grip HEK293 cells (Thermo Fisher Scientific)

Experiment [2] has as its target T2, human EGFR L858R+T790M+L718Q (Homo sapiens, UniProt P00533, L718Q/L858R/T790M).
T2 construct: expressed in transfected cells; host or cells: Jump-In Grip HEK293 cells (Thermo Fisher Scientific)

For experiment [3], the target named is T3, human EGFR L858R+T790M+L792F (Homo sapiens, UniProt P00533, L792F/L858R/T790M).
T3 construct: expressed in transfected cells; host or cells: Jump-In Grip HEK293 cells (Thermo Fisher Scientific)

Experiment [4] concerns the target T4, human EGFR Ex19del+T790M+L718Q (Homo sapiens, UniProt P00533, DEL746-750/L718Q/T790M).
T4 construct: expressed in transfected cells; host or cells: Jump-In Grip HEK293 cells (Thermo Fisher Scientific)

The target in experiment [5] is T5, human EGFR L858R (Homo sapiens, UniProt P00533, L858R).
T5 construct: expressed in transfected cells; host or cells: Jump-In Grip HEK293 cells (Thermo Fisher Scientific)

The target in experiment [6] is T6, human EGFR Ex19del+T790M+L792H (Homo sapiens, UniProt P00533, DEL746-750/L792H/T790M).
T6 construct: expressed in transfected cells; host or cells: Jump-In Grip HEK293 cells (Thermo Fisher Scientific)

In experiment [7] the target is T7, human EGFR L858R+T790M+L792Y (Homo sapiens, UniProt P00533, L792Y/L858R/T790M).
T7 construct: expressed in transfected cells; host or cells: Jump-In Grip HEK293 cells (Thermo Fisher Scientific)
T7 sequence (P00533 25-1210 T790M/L792Y/L858R): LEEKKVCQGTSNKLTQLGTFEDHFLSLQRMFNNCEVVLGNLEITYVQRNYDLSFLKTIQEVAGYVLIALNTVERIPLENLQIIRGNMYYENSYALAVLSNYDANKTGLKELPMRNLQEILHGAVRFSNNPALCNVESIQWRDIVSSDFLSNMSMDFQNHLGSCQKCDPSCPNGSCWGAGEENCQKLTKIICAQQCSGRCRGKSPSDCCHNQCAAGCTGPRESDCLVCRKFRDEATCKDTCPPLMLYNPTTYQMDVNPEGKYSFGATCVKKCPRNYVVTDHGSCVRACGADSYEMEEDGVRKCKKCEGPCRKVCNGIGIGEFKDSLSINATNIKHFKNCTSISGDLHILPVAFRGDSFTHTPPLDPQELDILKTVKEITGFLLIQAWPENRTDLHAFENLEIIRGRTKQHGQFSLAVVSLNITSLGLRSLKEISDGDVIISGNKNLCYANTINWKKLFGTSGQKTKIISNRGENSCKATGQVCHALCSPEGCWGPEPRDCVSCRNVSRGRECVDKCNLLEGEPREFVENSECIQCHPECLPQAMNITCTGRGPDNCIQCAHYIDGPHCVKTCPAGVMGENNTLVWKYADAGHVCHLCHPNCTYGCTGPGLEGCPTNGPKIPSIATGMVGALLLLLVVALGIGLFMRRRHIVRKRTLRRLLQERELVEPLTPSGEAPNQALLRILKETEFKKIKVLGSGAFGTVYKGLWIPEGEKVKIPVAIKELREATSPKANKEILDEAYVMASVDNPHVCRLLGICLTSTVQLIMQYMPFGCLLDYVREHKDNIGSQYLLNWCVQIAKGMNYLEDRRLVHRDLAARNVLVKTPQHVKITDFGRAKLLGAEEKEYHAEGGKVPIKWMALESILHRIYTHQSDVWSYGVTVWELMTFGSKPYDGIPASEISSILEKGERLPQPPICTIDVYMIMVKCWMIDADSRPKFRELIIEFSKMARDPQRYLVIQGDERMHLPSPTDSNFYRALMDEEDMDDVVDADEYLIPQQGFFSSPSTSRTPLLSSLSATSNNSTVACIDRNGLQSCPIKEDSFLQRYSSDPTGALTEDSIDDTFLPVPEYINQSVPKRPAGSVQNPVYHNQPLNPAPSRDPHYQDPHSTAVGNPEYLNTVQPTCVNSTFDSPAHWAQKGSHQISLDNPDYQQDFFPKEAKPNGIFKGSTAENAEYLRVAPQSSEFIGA

For experiment [8], the target named is T8, human EGFR L858R+T790M (Homo sapiens, UniProt P00533, L858R/T790M).
T8 construct: expressed in transfected cells; host or cells: Jump-In Grip HEK293 cells (Thermo Fisher Scientific)
T8 sequence (P00533 25-1210 T790M/L858R): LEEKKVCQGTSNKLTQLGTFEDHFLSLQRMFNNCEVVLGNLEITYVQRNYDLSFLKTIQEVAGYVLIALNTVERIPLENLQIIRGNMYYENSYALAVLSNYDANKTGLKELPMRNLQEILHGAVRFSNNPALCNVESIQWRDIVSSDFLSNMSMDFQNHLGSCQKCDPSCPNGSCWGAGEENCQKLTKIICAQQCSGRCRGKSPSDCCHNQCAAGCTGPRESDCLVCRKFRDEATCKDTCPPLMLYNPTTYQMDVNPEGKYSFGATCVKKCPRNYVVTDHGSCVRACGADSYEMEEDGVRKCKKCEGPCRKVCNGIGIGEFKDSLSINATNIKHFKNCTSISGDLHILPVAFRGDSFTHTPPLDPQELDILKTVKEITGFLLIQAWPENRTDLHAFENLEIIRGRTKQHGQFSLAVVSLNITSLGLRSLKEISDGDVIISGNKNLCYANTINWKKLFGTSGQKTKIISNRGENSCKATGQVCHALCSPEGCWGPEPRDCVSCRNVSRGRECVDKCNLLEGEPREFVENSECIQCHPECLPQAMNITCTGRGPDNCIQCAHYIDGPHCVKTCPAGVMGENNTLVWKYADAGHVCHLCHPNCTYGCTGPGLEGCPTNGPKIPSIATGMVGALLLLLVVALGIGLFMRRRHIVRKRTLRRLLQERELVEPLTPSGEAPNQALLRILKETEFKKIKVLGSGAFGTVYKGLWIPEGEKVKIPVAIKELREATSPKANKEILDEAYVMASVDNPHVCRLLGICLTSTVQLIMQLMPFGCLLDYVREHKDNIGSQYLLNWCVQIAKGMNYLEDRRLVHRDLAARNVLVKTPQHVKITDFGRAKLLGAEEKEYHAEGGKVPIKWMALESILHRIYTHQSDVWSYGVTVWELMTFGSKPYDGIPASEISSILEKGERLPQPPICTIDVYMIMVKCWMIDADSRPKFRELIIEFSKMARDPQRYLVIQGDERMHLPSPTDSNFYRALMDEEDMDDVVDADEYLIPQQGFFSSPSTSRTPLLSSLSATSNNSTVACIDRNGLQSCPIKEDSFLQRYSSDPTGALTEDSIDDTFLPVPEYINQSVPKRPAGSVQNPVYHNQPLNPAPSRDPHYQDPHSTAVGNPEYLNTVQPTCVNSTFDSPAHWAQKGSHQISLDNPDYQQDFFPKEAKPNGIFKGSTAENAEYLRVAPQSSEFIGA

Experiment [9] deals with T9, human EGFR Ex19del (Del E746-A750) (Homo sapiens, UniProt P00533, DEL746-750).
T9 construct: expressed in transfected cells; host or cells: Jump-In Grip HEK293 cells (Thermo Fisher Scientific)

Experiment [10] has as its target T10, human EGFR Ex19del+T790M+L792F (Homo sapiens, UniProt P00533, DEL746-750/L792F/T790M).
T10 construct: expressed in transfected cells; host or cells: Jump-In Grip HEK293 cells (Thermo Fisher Scientific)

Experiment [11] addresses T11, human EGFR Ex19del+T790M+L792Y (Homo sapiens, UniProt P00533, DEL746-750/L792Y/T790M).
T11 construct: expressed in transfected cells; host or cells: Jump-In Grip HEK293 cells (Thermo Fisher Scientific)

Experiment [12] addresses T12, human EGFR L858R+T790M+L792H (Homo sapiens, UniProt P00533, L792H/L858R/T790M).
T12 construct: expressed in transfected cells; host or cells: Jump-In Grip HEK293 cells (Thermo Fisher Scientific)

T2 sequence (P00533 25-1210 L718Q/T790M/L858R): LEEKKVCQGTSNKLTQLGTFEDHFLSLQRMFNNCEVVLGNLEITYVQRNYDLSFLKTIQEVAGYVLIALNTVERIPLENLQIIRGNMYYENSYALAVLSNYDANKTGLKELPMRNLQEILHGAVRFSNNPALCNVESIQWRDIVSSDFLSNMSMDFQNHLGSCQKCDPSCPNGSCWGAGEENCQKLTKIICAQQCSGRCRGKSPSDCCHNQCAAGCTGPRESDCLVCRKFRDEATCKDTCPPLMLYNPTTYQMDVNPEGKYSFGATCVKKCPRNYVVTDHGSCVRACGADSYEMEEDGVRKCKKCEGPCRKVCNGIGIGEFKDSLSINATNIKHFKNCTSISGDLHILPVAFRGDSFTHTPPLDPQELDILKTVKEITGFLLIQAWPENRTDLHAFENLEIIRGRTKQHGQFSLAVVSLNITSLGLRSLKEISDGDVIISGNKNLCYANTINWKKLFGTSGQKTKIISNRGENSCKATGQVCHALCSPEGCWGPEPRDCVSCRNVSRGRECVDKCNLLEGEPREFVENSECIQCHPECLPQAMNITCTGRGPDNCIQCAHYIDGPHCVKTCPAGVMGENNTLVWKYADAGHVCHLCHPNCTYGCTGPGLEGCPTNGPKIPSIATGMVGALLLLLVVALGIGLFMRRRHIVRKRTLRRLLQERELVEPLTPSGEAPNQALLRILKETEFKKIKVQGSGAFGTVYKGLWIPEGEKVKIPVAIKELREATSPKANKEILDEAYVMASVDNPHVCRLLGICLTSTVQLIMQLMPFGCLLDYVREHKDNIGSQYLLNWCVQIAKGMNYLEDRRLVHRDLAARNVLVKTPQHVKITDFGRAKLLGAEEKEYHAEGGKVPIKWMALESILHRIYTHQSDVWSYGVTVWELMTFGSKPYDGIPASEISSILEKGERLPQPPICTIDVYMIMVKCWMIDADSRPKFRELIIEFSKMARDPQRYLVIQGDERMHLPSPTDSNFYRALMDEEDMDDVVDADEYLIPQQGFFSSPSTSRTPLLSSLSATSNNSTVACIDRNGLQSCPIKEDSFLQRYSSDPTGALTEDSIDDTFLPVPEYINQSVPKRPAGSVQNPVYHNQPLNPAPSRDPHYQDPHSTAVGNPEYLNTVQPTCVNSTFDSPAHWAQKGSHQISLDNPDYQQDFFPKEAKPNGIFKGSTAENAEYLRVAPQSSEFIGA
T4 sequence (P00533 with tags, fused parts or gaps L718Q/DEL746-750/T790M): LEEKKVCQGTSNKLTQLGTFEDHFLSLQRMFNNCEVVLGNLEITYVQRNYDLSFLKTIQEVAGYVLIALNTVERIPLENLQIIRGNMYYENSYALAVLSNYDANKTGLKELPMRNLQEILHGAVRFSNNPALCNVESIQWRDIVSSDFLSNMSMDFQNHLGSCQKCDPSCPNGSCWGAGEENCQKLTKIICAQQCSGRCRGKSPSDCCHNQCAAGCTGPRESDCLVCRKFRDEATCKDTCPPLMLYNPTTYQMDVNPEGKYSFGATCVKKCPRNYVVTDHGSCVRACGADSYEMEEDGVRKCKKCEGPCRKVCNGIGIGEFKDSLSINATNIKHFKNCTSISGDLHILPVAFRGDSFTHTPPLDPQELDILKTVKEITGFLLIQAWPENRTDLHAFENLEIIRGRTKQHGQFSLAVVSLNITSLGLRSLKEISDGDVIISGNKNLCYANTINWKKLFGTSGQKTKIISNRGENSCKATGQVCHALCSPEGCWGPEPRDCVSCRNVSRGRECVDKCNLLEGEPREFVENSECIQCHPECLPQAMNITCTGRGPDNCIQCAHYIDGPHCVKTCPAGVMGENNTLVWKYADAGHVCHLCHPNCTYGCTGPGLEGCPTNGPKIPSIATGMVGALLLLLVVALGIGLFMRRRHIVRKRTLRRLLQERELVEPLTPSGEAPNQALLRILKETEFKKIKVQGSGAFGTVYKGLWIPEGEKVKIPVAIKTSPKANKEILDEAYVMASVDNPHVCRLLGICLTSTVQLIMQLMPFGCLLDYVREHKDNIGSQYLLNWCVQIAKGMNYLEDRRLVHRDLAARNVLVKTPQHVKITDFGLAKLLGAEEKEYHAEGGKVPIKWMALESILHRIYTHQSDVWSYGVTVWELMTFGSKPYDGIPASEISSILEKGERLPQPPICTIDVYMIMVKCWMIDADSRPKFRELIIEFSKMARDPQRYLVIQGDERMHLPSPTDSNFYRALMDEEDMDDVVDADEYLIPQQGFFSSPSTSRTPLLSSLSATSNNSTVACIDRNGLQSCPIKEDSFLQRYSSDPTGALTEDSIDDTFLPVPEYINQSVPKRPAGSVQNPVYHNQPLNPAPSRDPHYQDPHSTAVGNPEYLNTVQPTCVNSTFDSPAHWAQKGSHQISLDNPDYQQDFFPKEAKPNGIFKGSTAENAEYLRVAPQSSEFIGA

As a reminder, the IC50 is the concentration at which inhibition is half-maximal. Turning to `C=CC(=O)N[C@H]1C=C(C)c2c(-c3cnc4ccccc4c3)c3c(N)ncnc3n2C1` [Compound A, (S)—N-(4-amino-6-methyl-5-(quinolin-3-yl)-8,9-dihydropyrimido[5,4-b]indolizin-8-yl) acrylamide], the IC50 amounted to 16.9 ± 5.9 µM in experiment [1]; 104 ± 40 µM in [2]; 9.07 ± 4.74 µM in [3]; 82.5 ± 9 µM in [4]; 13.8 ± 3.8 µM in experiment [5]; 11.1 ± 5.6 µM in experiment [6]. Moreover, the IC50 stood at 11.3 ± 5.8 µM in [7]; 16 ± 2.6 µM in experiment [8]; 11.2 ± 6.4 µM in [9]; 6.25 ± 1.83 µM in experiment [10]; 6.54 ± 1.49 µM in [11]; 15.3 ± 5 µM in experiment [12].
